Test results taken from patent US20260200982A1, “HER RECEPTOR DERIVED PEPTIDES AND METHODS OF USE THEREOF” (Ramot at Tel-Aviv University Ltd., priority 2022, published 2026).
Where a SMILES comes first, the peptide text is derived from it. Bridges are numbered along the chain shown (N, C = ends). [ ]: non-standard residue; d: D form. The star is where a group is joined. Myristoyl = CCCCCCCCCCCCCC(=O)*; S5 = C=CCCC[C@](C)(N)C(=O)O

How the values were obtained:
DLD-1 colon cancer cells = assay type: cell-based, human
Text: (§1) Cell lines—Human breast cancer cell lines SKBR3 [Peles E et al. EMBO J. (1993) 12(3):961-71] and MCF7 [Faigenbloom L et al., Mol Syst Biol. (2015) 11(12):845] and human glioblastoma U87 [Goldberg L et al. Cancer Res. (2006) 66(24):11709-17] cell line, as well as Rat-1 fibroblast cells and H-Ras-transformed Rat-1 cells (EJ cells) [Marom M et al. J Biol Chem. (1995) 270(38):22263-70] and human Panc-1 and MIA PaCa-2 pancreatic cell lines (Rak R et al. Oncoscience. 2014 1(1):39-48; Weisz B et al. Oncogene (1999) 18, 2579±2588) were all grown in Dulbecco's modified Eagle's medium (DMEM; Biological Industries, Beithaemek, Israel). Human colorectal cancer cell lines DLD-1 (ATTC Cat No. CCL-221), HCT-116 (ATTC Cat No. CCL-247) and LNCaP prostate cancer cells were grown in Roswell Park Memorial Institute 1640 (RPMI 1640) medium and McCoy's 5A media, respectively (Sigma-Aldrich). All media were supplemented with antibiotics and 10% heat-inactivated fetal bovine serum (FBS; Gibco). Human breast cell line MCF10A [Bott A et al. Oncotarget. (2017) 8(27):43897-43914] was grown in Dulbeco's Modified Eagle's Medium/Nutrient Mixture F-12 HAM medium (DMEM F-12 HAM; Sigma-Aldrich), supplemented with antibiotics, 5% inactivated horse serum (HS; Invitrogen), 2 mM L-glutamine (Biological Industries, Beithaemek, Israel), 0.1 μg/ml cholera toxin (Sigma-Aldrich), 0.5 μg/ml hydrocortisone (Sigma-Aldrich), 10 μg/ml insulin (Biological Industries, Beithaemek, Israel) and 2 ng/ml EGF (R&D Systems). Cells were incubated at 37° C. in 5% CO2 in air, and the medium was changed every 3-4 days. Cells were passaged in trypsin/disodium ethylenediaminetetraacetic acid (Biological Industries, Beithaemek, Israel) when confluency reached 70%. One day prior to treatment the cells were plated at ~50% confluency in a medium supplemented with 10% FBS or 5% HS, accordingly.
(§2) Methylene blue viability assay—Cells were plated in 96-wells plates at cell densities of 1.5×10^3 (EJ, DLD-1), 3×10^3 (Rat-1, HCT-116, U87), 5×10^3 (SKBR3, MCF7) and 6×10^3 (MCF10A) cells/well. On the following day, cells were treated as indicated, and grown for 72 hours. Cell number determination was performed as described previously. IC-50 values were calculated using a non-linear regression model (logarithmic inhibitor vs. normalized response-variable slope) with the GraphPad Prism 6 software.

U87 glioma cells = assay type: cell-based, human; conditions: 72 h
Text: as §1, §2

[1] = test system: HCT-116 colon cancer cells; assay type: cell-based, human
Text: as §1, §2

[2] = test system: Panc-1 pancreatic cancer cells; assay type: cell-based, human; conditions: 72 h
Text: as §1, §2

[3] = test system: non-cancerous (MCF10A) breast cell line; test: Methylene blue viability assay, MCF10A; assay type: cell-based, human
Text: as §1, §2

[4] = test system: H-Ras-transformed Rat-1 cells (EJ cells); assay type: cell-based
Text: Cell lines—Human breast cancer cell lines SKBR3 [Peles E et al. EMBO J. (1993) 12(3):961-71] and MCF7 [Faigenbloom L et al., Mol Syst Biol. (2015) 11(12):845] and human glioblastoma U87 [Goldberg L et al. Cancer Res. (2006) 66(24):11709-17] cell line, as well as Rat-1 fibroblast cells and H-Ras-transformed Rat-1 cells (EJ cells) [Marom M et al. J Biol Chem. (1995) 270(38):22263-70] and human Panc-1 and MIA PaCa-2 pancreatic cell lines (Rak R et al. Oncoscience. 2014 1(1):39-48; Weisz B et al. Oncogene (1999) 18, 2579±2588) were all grown in Dulbecco's modified Eagle's medium (DMEM; Biological Industries, Beithaemek, Israel). Human colorectal cancer cell lines DLD-1 (ATTC Cat No. CCL-221), HCT-116 (ATTC Cat No. CCL-247) and LNCaP prostate cancer cells were grown in Roswell Park Memorial Institute 1640 (RPMI 1640) medium and McCoy's 5A media, respectively (Sigma-Aldrich). All media were supplemented with antibiotics and 10% heat-inactivated fetal bovine serum (FBS; Gibco). Human breast cell line MCF10A [Bott A et al. Oncotarget. […]
as §2, with “On the following day, cells were treated as indicated, and grown for 72 hours. Cell number determination was performed as described previously.” left out

MCF7 breast cancer cells = assay type: cell-based, human
Text: as §1
as §2, with “On the following day, cells were treated as indicated, and grown for 72 hours.” left out

[5] = test system: SKBR3 breast cancer cells; assay type: cell-based, human
Text: as §1
as §2, with “On the following day, cells were treated as indicated, and grown for 72 hours.” left out

EGFR (ErbB1) = test: Immunoblotting of cell lysates, EGFR phosphorylation; assay type: cell-based, human; conditions: SKBR3, DLD-1 and HCT116; 50 μM, 24 hours; FIG. 3B
Experimental: (§3) Lysate preparation and immunoblotting—Cells were seeded at cell densities of 1.5×10^5 (DLD-1), 1.8×10^5 (HCT-116) and 2.5×10^5 (SKBR3) cells/well, treated as indicated and grown for 24 hours. Following, cells were lysed in solubilization buffer; the lysates were cleared by centrifugation and a boiling gel sample buffer was added. Proteins were resolved by SDS-polyacrylamide gel electrophoresis through 10% polyacrylamide gels, and were electrophoretically transferred to nitrocellulose membranes. Membranes were blocked in TBST buffer containing 6% milk, and blotted with primary antibodies. Following, a secondary antibody linked to horseradish peroxidase was added. Immunoreactive bands were detected with the enhanced chemiluminescence reagent Immobilon Crescendo Western HRP substrate (WBLUR0100; Merck Millipore).

[6] = target: T1, ErbB2-nucleolin complexes (Homo sapiens, UniProt P19338); test: Proximity Ligation Assay (PLA); assay type: cell-based; conditions: SKBR3 cells, 53 μM, 48 hours, FIG. 3A
T1 construct: endogenous in cells; host or cells: SKBR3
Experimental: Proximity Ligation Assay (PLA)—For proximity ligation assay (PLA) cells were plated in a 16-wells Nunc Lab-Tek glass Chamber Slide System (178599; Thermo Scientific) at a density of 3.5×10^3 cells/well. 2 hours post-seeding the cells were treated with 53 μM of either TAT peptide (SEQ ID NO: 2) or TAT-NLS peptide (SEQ ID NO: 3) and grown for 48 hours. Following fixation, cells were incubated with rabbit anti-ErbB2 and mouse anti-nucleolin antibodies. PLA was performed using the Duolink In-Situ PLA probes: anti-rabbit MINUS and anti-mouse PLUS, and the Duolink In-Situ Detection Reagents Red kit (DUO92005; DUO92001; DUO92008, respectively; Sigma-Aldrich), according to the manufacturer's instructions. Nuclei were stained using the Duolink In-Situ Mounting Medium with DAPI (DUO82040; Sigma-Aldrich). Slides were visualized 24 hours post-staining and images were obtained using an Olympus motorized inverted research microscope Model IX81 (60× magnification). Signal intensity was determined using ImageJ software.

ErbB2 = test: Immunoblotting of cell lysates, ErbB2 phosphorylation; assay type: cell-based, human; conditions: SKBR3, DLD-1 and HCT116; 50 μM, 24 hours; FIG. 3B
Experimental: as §3

DLD-1 cells = test: Colony formation assay, DLD-1; assay type: cell-based, human; conditions: 20 μM, 72 hours, FIG. 12
Experimental: Colony formation assay—Cells were plated onto 12-well plate (6×10^4 cells/well) and treated with either PBS or myr-NLS at the IC50 concentration for 3 days. Cells were collected and replated in 10-cm plates (at 3 dilutions of 1:10, 1:20 and 1:40). After 7-14 days when visible and yet separated colonies were formed, the cells were fixed with 0.1% acetic acid in PBS, and stained with 0.4% crystal violet in 0.1% acetic acid. Total colonies area was calculated using the ImageJ program.
In addition, a colony formation assay was conducted to further examine the anti-tumor effect of the myr-NLS (SEQ ID NO: 5), myr-NLS2 (SEQ ID NO: 15) and myr-NLS4 (SEQ ID NO: 17) peptides. To this end, DLD-1 cells were treated or untreated for 72 hours with 20 μM of the myr-peptides. Cells were then seeded at the same dilutions in new plates until colonies were formed.

[7] = test system: DLD-1 colon cancer tumor xenografts; test: Colon Tumor Growth in Nude Mice; assay type: in vivo; conditions: DLD-1 xenografts, 25 μg/100 μl PBS intraperitoneal daily, FIGS. 14A-C
Experimental: Colon Tumor Growth in Nude Mice—Nude CD1-Nu mice (25-30 g) housed in barrier facilities on a 12-h light/dark cycle one week prior to the injection of tumor cells (day zero). On day zero, 5×10^6 DLD-1 cells were implanted subcutaneously just above the right femoral joint. Tumor size was measured every 3-4 days. When the tumors were apparently seen, the animals were divided randomly into three groups of mice [control vehicle treated, myr-NLS1 (SEQ ID NO: 5), myr-NLS4 (SEQ ID NO: 17)]. Treatment was performed by intraperitoneal injection of 25 μg in 100 μl PBS every day. Mice were weighed and tumors size was measured 3 times a week. At the end of the experiment, the mice were sacrificed, and the tumors were dissected and used for further analysis.

[8] = 72 hours, 10 μM peptide, FIGS. 6A-B
[9] = 30 μM peptide for 48 hours, FIG. 5A

T1 sequence (P19338 2-710 limits assumed, one chain of several): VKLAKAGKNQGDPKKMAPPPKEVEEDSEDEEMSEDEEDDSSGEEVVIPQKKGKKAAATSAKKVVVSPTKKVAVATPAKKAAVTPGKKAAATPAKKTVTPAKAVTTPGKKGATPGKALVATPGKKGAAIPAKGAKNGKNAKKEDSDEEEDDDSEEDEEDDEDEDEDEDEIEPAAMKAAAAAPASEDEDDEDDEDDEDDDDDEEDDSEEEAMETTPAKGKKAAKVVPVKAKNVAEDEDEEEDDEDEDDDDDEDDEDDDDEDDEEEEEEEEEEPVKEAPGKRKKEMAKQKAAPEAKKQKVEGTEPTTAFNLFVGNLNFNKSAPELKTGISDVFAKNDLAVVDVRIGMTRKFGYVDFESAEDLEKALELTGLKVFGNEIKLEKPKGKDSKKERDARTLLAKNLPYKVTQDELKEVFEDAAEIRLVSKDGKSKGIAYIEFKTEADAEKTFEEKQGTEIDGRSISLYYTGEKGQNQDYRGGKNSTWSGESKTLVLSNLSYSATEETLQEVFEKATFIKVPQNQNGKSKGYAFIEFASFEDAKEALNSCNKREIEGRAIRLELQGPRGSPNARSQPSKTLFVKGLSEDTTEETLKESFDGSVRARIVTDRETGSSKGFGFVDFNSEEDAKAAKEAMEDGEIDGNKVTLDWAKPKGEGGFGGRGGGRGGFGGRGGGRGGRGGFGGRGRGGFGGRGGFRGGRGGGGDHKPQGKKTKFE

Compound: CCCCCCCCCCCCCC(=O)N[C@@H](CCCNC(=N)N)C(=O)N[C@@H](CCCNC(=N)N)C(=O)N[C@@H](CCCNC(=N)N)C(=O)N[C@@H](Cc1c[nH]cn1)C(=O)N[C@H](C(=O)N[C@@]1(C)CCCC=CCCC[C@@](C)(C(=O)N[C@@H](CC(C)C)C(=O)N[C@@H](CCCNC(=N)N)C(=O)N[C@@H](CCCNC(=N)N)C(=O)N[C@@H](CC(C)C)C(=O)N[C@@H](CC(C)C)C(=O)O)NC(=O)[C@H](CCCNC(=N)N)NC(=O)[C@H](CCCCN)NC(=O)[C@H](CCCNC(=N)N)NC1=O)[C@@H](C)CC [mN6-10, Myr-RRRHI(S5)RKR(S5)LRRLL] (Myristoyl-RRRHI[S5]RKR[S5]LRRLL-OH; staple 6-10; C-terminus assumed)
- IC50 (DLD-1 colon cancer cells; 72 h): 9.4 µM
- IC50 (U87 glioma cells): 15.9 µM
- IC50 ([1]; 72 h): 13.3 µM
- IC50 [2]: 7.6 µM
- viability of non-cancerous MCF10 breast cells [3, 8]: had no effect
- IC50 [4]: 11.6 µM
- IC50 (MCF7 breast cancer cells): 9.7 µM
- viability of MCF7 breast cancer cells (MCF7 breast cancer cells; [9]): even more efficient than the myr-NLS peptide
- MCF7 cell viability (MCF7 breast cancer cells; [8]): decreased MCF7 cell viability
- viability of SKBR3 breast cancer cells [5, 9]: even more efficient than the myr-NLS peptide
- IC50 ([5]; 72 h): 18.9 µM

Compound: GRKKRRQRRRPPQRRRHIVRKRTLRRLL [TAT-NLS]
- cell growth of DLD-1 colon cancer cells (DLD-1 colon cancer cells; 72 hours, FIGS. 2A-C): inhibited cell growth
- IC50 on cell viability (DLD-1 colon cancer cells; DLD-1, 72 hours, FIG. 2C): 40.2 µM
- cell growth of HCT-116 colon cancer cells ([1]; 72 hours, FIGS. 2A-C): inhibited cell growth
- IC50 on cell viability ([1]; HCT116, 72 hours, FIG. 2C): 27.7 µM
- ErbB1 phosphorylation (EGFR (ErbB1)): inhibited
- interaction between the ErbB2 receptor and nucleolin (PLA) [6]: reduced the interaction
- interaction between the ErbB2 receptor and nucleolin (PLA) ([6]; listed as TAL-NLS): disrupts the ErbB-nucleolin interaction
- viability of the non-cancerous cells MCF10 ([3]; FIGS. 2A-C): not affecting viability
- ErbB2 phosphorylation (ErbB2): inhibited
- cell growth of MCF7 breast cancer cells (MCF7 breast cancer cells; 72 hours, FIGS. 2A-C): inhibited cell growth
- IC50 on cell viability (MCF7 breast cancer cells; MCF7, 72 hours, FIG. 2C): 49.5 µM
- cell growth of SKBR3 breast cancer cells ([5]; 72 hours, FIGS. 2A-C): inhibited cell growth
- IC50 on cell viability ([5]; SKBR, 72 hours, FIG. 2C): 83.1 µM

Compound: Myr-KRRQQKIRKYTMRRLL-OH (Myristoyl-KRRQQKIRKYTMRRLL-OH; SMILES CCCCCCCCCCCCCC(=O)N[C@@H](CCCCN)C(=O)N[C@@H](CCCNC(=N)N)C(=O)N[C@@H](CCCNC(=N)N)C(=O)N[C@@H](CCC(N)=O)C(=O)N[C@@H](CCC(N)=O)C(=O)N[C@@H](CCCCN)C(=O)N[C@H](C(=O)N[C@@H](CCCNC(=N)N)C(=O)N[C@@H](CCCCN)C(=O)N[C@@H](Cc1ccc(O)cc1)C(=O)N[C@H](C(=O)N[C@@H](CCSC)C(=O)N[C@@H](CCCNC(=N)N)C(=O)N[C@@H](CCCNC(=N)N)C(=O)N[C@@H](CC(C)C)C(=O)N[C@@H](CC(C)C)C(=O)O)[C@@H](C)O)[C@@H](C)CC) [myr-NLS2]
- colony formation (total colonies area) (DLD-1 cells): fewer and smaller colonies

Compound: Myr-RRKSIKKKRALRRFL-OH (Myristoyl-RRKSIKKKRALRRFL-OH; SMILES CCCCCCCCCCCCCC(=O)N[C@@H](CCCNC(=N)N)C(=O)N[C@@H](CCCNC(=N)N)C(=O)N[C@@H](CCCCN)C(=O)N[C@@H](CO)C(=O)N[C@H](C(=O)N[C@@H](CCCCN)C(=O)N[C@@H](CCCCN)C(=O)N[C@@H](CCCCN)C(=O)N[C@@H](CCCNC(=N)N)C(=O)N[C@@H](C)C(=O)N[C@@H](CC(C)C)C(=O)N[C@@H](CCCNC(=N)N)C(=O)N[C@@H](CCCNC(=N)N)C(=O)N[C@@H](Cc1ccccc1)C(=O)N[C@@H](CC(C)C)C(=O)O)[C@@H](C)CC) [myr-NLS4]
- colony formation (total colonies area) (DLD-1 cells): fewer and smaller colonies
- tumor growth (tumor size, tumor weight) [7]: significantly reduced tumor cell growth
